# Assay results reported in the supplement of paper PMC8967900.
# Tests used:
# Assay in all cases: selective drug sensitivity score (sDSS, relative to normal bone marrow) (sDSS (score)); higher = more potent and effective on the cell line relative to normal bone marrow cells
# Details in all cases: 72 h
# [1] = system: HAL-01
# [2] = system: 697
# [3] = system: KOPN-8
# 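Also: ALL cell lines in 384-well plates, five doses spanning 10,000-fold, each plate scaled between vehicle and 100 µmol/L benzalkonium chloride controls, sDSS an adapted area-under-curve metric.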
SMILES,selective drug sensitivity score [1],selective drug sensitivity score [2],selective drug sensitivity score [3]
C[C@@H]1CCN(C(=O)CC#N)C[C@@H]1N(C)c1ncnc2[nH]ccc12 [Tofacitinib] (top concentration 5000 nM),-7.86,-6.86,-7.66
Clc1ccc(C(c2ccccc2Cl)C(Cl)Cl)cc1 (configuration not stated) [Mitotane] (top concentration 10000 nM),0.62,-0.08,4.32
CC(C)N(CCCNC(=O)Nc1ccc(C(C)(C)C)cc1)C[C@H]1O[C@@H](n2cc(Br)c3c(N)ncnc32)[C@H](O)[C@@H]1O [SGC0946] (top concentration 10000 nM),0.68,-0.02,-0.72
CCN(c1cc(-c2ccc(CN3CCOCC3)cc2)cc(C(=O)NCc2c(C)cc(C)[nH]c2=O)c1C)C1CCOCC1 [Tazemetostat] (top concentration 10000 nM),3.82,0.32,-0.08
CCS(=O)(=O)Nc1ccc(Oc2ccc(F)cc2F)c(-c2cn(C)c(=O)c3[nH]ccc23)c1 [Mivebresib] (top concentration 10000 nM),1.1,16.5,16.6
CCCCCCCCCCCCCCCCCCOP(=O)([O-])OC1CC[N+](C)(C)CC1 [Perifosine] (top concentration 2500 nM),-0.26,-0.36,-0.26
O=C(NOCCO)c1ccc2cncn2c1Nc1ccc(I)cc1F [GDC-0623] (top concentration 2500 nM),3.1,-2.5,-1.2
C=CC(=O)Nc1cccc(Nc2nc(Nc3ccc(N4CCN(C(C)=O)CC4)cc3OC)ncc2C(F)(F)F)c1 [Rociletinib] (top concentration 10000 nM),0.14,3.54,1.14
Cc1nc2cccc(N)c2c(=O)n1C1CCC(=O)NC1=O (configuration not stated) [Avadomide (CC122)] (top concentration 10000 nM),1.6,2.7,1.3
CC[C@@H]1[C@H](F)C(=O)N[C@@H]1COc1nccc2cc(C(N)=O)c(OC)cc12 (top concentration 10000 nM),-1.32,1.88,1.78
Cc1ccc(NS(=O)(=O)c2cccc(C#N)c2)c2[nH]cc(C#N)c12 [E7820] (top concentration 50000 nM),12.3,21.7,19.8
CNC(=O)[C@@H](NC(=O)[C@H](CC(C)C)[C@H](O)C(=O)NO)C(C)(C)C [Marimastat] (top concentration 10000 nM),-1.28,-0.68,7.22
CC(=O)O[C@H]1C(=O)[C@@]2(C)[C@H]([C@H](OC(=O)c3ccccc3)[C@]3(O)C[C@H](OC(=O)[C@H](O)[C@@H](NC(=O)c4ccccc4)c4ccccc4)C(C)=C1C3(C)C)[C@]1(OC(C)=O)CO[C@@H]1C[C@@H]2O [Paclitaxel] (top concentration 1000 nM),0.74,22.4,22.4
CCOc1ccn(-c2ccc(F)cc2)c(=O)c1C(=O)Nc1ccc(Oc2ccnc(N)c2Cl)c(F)c1 (top concentration 2500 nM),0.1,0.4,0
C[C@]1(O)C[C@@H](c2nc(-c3ccc4ccc(-c5ccccc5)nc4c3)c3c(N)nccn32)C1 [Linsitinib] (top concentration 10000 nM),-1.78,-2.68,-0.38
C=CC[C@@H]1/C=C(\C)C[C@H](C)C[C@H](OC)[C@H]2O[C@@](O)(C(=O)C(=O)N3CCCC[C@H]3C(=O)O[C@H](/C(C)=C/[C@@H]3CC[C@@H](O)[C@H](OC)C3)[C@H](C)[C@@H](O)CC1=O)[C@H](C)C[C@@H]2OC [Tacrolimus] (top concentration 10000 nM),8.58,2.88,4.68
C=CC(=O)Nc1cc(Nc2nccc(-c3cn(C)c4ccccc34)n2)c(OC)cc1N(C)CCN(C)C [Osimertinib] (top concentration 2500 nM),-0.42,-1.42,-0.82
COc1cc(C(=O)O)ccc1NC(=O)[C@@H]1N[C@@H](CC(C)(C)C)[C@](C#N)(c2ccc(Cl)cc2F)[C@H]1c1cccc(Cl)c1F [Idasanutlin] (top concentration 10000 nM),19.1,16.8,25.7
CN1CCN(C(=O)c2ccc3cc(CCNc4ncnc5ccc(C#N)cc45)ccc3c2)CC1 [Senexin_B] (top concentration 1000 nM),-0.6,2.1,-0.6
CN1CCN(C2CCN(C(=O)Nc3cc(Oc4ccc(NC(=O)C5(C(=O)Nc6ccc(F)cc6)CC5)c(F)c4)ccn3)CC2)CC1 [Golvatinib] (top concentration 2500 nM),0.76,1.76,-0.14

SMILES,selective drug sensitivity score [1],selective drug sensitivity score [2],selective drug sensitivity score [3]
O=C(O)c1ccc(CN2CCC(CN[C@@H]3C[C@H]3c3ccccc3)CC2)cc1 (top concentration 100000 nM),-0.62,-0.42,-0.62
COc1cc(CCc2cc(NC(=O)c3ccc(N4CC(C)NC(C)C4)cc3)n[nH]2)cc(OC)c1 (configuration not stated) [AZD4547] (top concentration 1000 nM),-0.14,-0.04,-0.14
CCCCOc1nc(N)c2c(n1)N(Cc1cccc(CN3CCCC3)c1)CC(=O)N2 [Vesatolimod] (top concentration 10000 nM),-3.52,-3.42,-3.22
CC1(C)CCC(CN2CCN(c3ccc(C(=O)NS(=O)(=O)c4ccc(NCC5CCOCC5)c([N+](=O)[O-])c4)c(Oc4cnc5[nH]ccc5c4)c3)CC2)=C(c2ccc(Cl)cc2)C1 [Venetoclax] (top concentration 1000 nM),20.4,10.1,28.9
CCCCCCCCc1ccc(CCC(N)(CO)CO)cc1 [Fingolimod] (top concentration 10000 nM),1.88,-0.22,3.18
COc1cc(Nc2c(C#N)cnc3cc(OCCCN4CCN(C)CC4)c(OC)cc23)c(Cl)cc1Cl [Bosutinib] (top concentration 10000 nM),-0.54,5.86,4.56
N#CC1(c2ccc(NC(=O)c3cccnc3NCc3ccncc3)cc2)CCCC1 [Apatinib] (top concentration 10000 nM),0,0,0.1
O=C(Nc1cc(Cl)cc2c1[nH]c1cnccc12)c1cccnc1 [PS-1145] (top concentration 25000 nM),2.14,0.44,-0.46
CC(C)C[C@H](NC(=O)[C@@H](COC(C)(C)C)NC(=O)[C@H](Cc1ccc(O)cc1)NC(=O)[C@H](CO)NC(=O)[C@H](Cc1c[nH]c2ccccc12)NC(=O)[C@H](Cc1cnc[nH]1)NC(=O)[C@@H]1CCC(=O)N1)C(=O)N[C@@H](CCCNC(=N)N)C(=O)N1CCC[C@H]1C(=O)NNC(N)=O [Goserelin] (top concentration 10000 nM),-0.06,-0.06,-0.06
COc1cc([C@@H]2c3cc4c(cc3[C@@H](O[C@@H]3O[C@@H]5CO[C@@H](C)O[C@H]5[C@H](O)[C@H]3O)[C@H]3COC(=O)[C@H]23)OCO4)cc(OC)c1O [Etoposide] (top concentration 10000 nM),5.14,20.6,24.9
N.N.[Cl][Pt][Cl] [Cisplatin] (top concentration 100000 nM),12,19.7,21.7
CN1C(=O)N[C@H](Cc2c[nH]c3c(Cl)cccc23)C1=O [Necrostatin_2] (top concentration 10000 nM),-0.08,-0.08,-0.08
CCS(=O)(=O)N1CC(CC#N)(n2cc(-c3ncnc4[nH]ccc34)cn2)C1 [Baricitinib] (top concentration 2500 nM),-1.94,-1.94,-1.94
COc1cc(N2CCN(C)CC2)ccc1Nc1nccc(-c2cn(C)c3cnccc23)n1 [AZ191] (top concentration 10000 nM),0.88,1.08,2.18
Nc1cccc2c1C(=O)N(C1CCC(=O)NC1=O)C2=O (configuration not stated) [Pomalidomide] (top concentration 10000 nM),-0.26,1.74,-0.26
CCN1CCN(c2ccc(Nc3cc(N(C)C(=O)Nc4c(Cl)c(OC)cc(OC)c4Cl)ncn3)cc2)CC1 [Infigratinib] (top concentration 1000 nM),0,0,0
CC1(C)C(C(=O)Nc2ccc(S(=O)(=O)c3ccc(NC(=O)C4C(C)(C)C4(C)C)cc3)cc2)C1(C)C [BRD7116] (top concentration 10000 nM),3.36,0.56,-0.24
Cc1cc(Nc2nc(N[C@@H](C)c3ncc(F)cn3)ncc2Cl)[nH]n1 [AZD1480] (top concentration 1000 nM),-0.98,-3.78,-4.28
O=S(=O)(c1cccc2c(O)nccc12)N1CCCNCC1 [Hydroxyfasudil] (top concentration 19000 nM),1.38,1.18,0.78
